Laboratory results: patent publication US8076285B2, “Lysobactin amides” (Aicuris GmbH & Co. KG, priority 2006, dated 2011)
Converted amounts (≈) assume the structure as drawn. Where two headings read alike, the source gives them in different places. *1 amine or outer side, *2 acyl side, *3 side chain or, on linkers, in order; H or OH if unused. Where a SMILES comes first, the peptide text is derived from it. Bridges are numbered along the chain shown (N, C = ends). [ ]: non-standard residue; d: D form. ξ: configuration not given here. Phe(βR-NH) = O=C([C@@H](N[*:1])[C@H](N[*:3])c1ccccc1)[*:2]; Leu(3R-OH) = CC(C)[C@@H](O)[C@H](N)C(=O)O; X1 = NC(=O)[C@@H](O)C(N[*:1])C(=O)[*:2]; dAla(TMS) = C[Si](C)(C)C[C@@H](N)C(=O)O; d(tBuAla) = CC(C)(C)C[C@@H](N)C(=O)O; tBuAla = CC(C)(C)C[C@H](N)C(=O)O; 3Pal = N[C@@H](Cc1cccnc1)C(=O)O; aThr = C[C@H](O)[C@H](N)C(=O)O; ξIle = CC[C@H](C)C(N)C(=O)O; Nle = CCCC[C@H](N)C(=O)O; ξS = NC(CO)C(=O)O; ξA = CC(N)C(=O)O

What was measured:
[1] = amide bond, 28-membered ring
[2] = tested on: Enterococcus faecalis 27159; type: cell-based
Method: (§1) Determination of the Minimum Inhibitory Concentration (MIC):
(§2) The MIC is determined in the liquid dilution test in accordance with the NCCLS guidelines. Overnight cultures of Staphylococcus aureus 133, Enterococcus faecalis 27159, E. faecium 4147 and Streptococcus pneumoniae G9a are incubated with the described test substances in a 1:2 dilution series. The MIC determination is carried out with a cell count of 10^5 microbes per ml in Isosensitest medium (Difco, Irvine/USA), with the exception of S. pneumoniae which is tested in BHI broth (Difco, Irvine/USA) with 10% bovine serum with a cell count of 10^6 microbes per ml. The cultures are incubated at 37° C. for 18-24 hours, S. pneumoniae in the presence of 10% CO2.
(§3) The MIC is defined as the lowest concentration of each substance at which no visible bacterial growth occurs any longer. The MIC values are reported in μg/ml.

[3] = tested on: Streptococcus pneumoniae G9a; type: cell-based
Method: as §1, §2, §3

[4] = tested on: Staphylococcus aureus 133; type: cell-based
Method: as §1, §2, §3

[5] = amide bond; 28-membered ring; HATU/NMM; DMF; 0.0 °C
[6] = Isosensitest medium, 10^5 microbes per ml, 37° C., 18-24 hours

Molecule | MIC E. faecalis ICB 27159 [2]; 27159 | MIC S. pneumoniae G9a ([3]; G9a) | MIC S. aureus 133 [4]; 133 | also measured
CC[C@H](C)[C@@H]1NC(=O)[C@@H](CCCN(C(=N)NC(=O)OCc2ccccc2)C(=O)OCc2ccccc2)NC(=O)[C@H](CC(C)C)NC(=O)[C@H]([C@H](O)C(C)C)NC(=O)[C@@H](NC(=O)[C@H](CC(C)(C)C)NC(=O)[C@@H](CC(C)(C)C)NC(=O)OCc2ccccc2)[C@@H](c2ccccc2)NC(=O)[C@H](CO)NC(=O)[C@H](CC(N)=O)NC(=O)CNC(=O)[C@H]([C@H](C)O)NC1=O | – | – | – | ring closure, yield after HPLC ([1]; from Z-dAla(3-tBu)-Ala(3-tBu)-(3R)3-amino-Phe(free 3-NH2)-(3R)3-OH-Leu-Leu-dArg(Z)2-Ile-aThr-Gly-Asn-Ser-OH, HATU/NMM, DMF, 1.1 mM, 25.0 °C): 90.1%
CC[C@H](C)[C@@H]1NC(=O)[C@@H](CCCNC(=N)N)NC(=O)[C@H](CC(C)C)NC(=O)[C@H]([C@H](O)C(C)C)NC(=O)[C@@H](NC(=O)[C@H](CC(C)(C)C)NC(=O)[C@@H](CC(C)(C)C)NC(=O)OCc2ccccc2)[C@@H](c2ccccc2)NC(=O)[C@H](CO)NC(=O)[C@H](CC(N)=O)NC(=O)CNC(=O)[C@H]([C@H](C)O)NC1=O | – | – | – | ring closure, yield after HPLC ([1]; from Z-dAla(3-tBu)-Ala(3-tBu)-(3R)3-amino-Phe(free 3-NH2)-(3R)3-OH-Leu-Leu-dArg-Ile-aThr-Gly-Asn-Ser-OH, HATU/NMM, DMF, 1.14 mM, 4.0 °C): 80%
CC[C@H](C)[C@@H]1NC(=O)[C@@H](CCCNC(=N)N)NC(=O)[C@H](CC(C)C)NC(=O)[C@H]([C@H](O)C(C)C)NC(=O)[C@@H](NC(=O)[C@H](CC(C)C)NC(=O)[C@@H](CC(C)C)NC(=O)OCc2ccccc2)[C@@H](c2ccccc2)NC(=O)[C@H](CO)NC(=O)[C@H](CC(N)=O)NC(=O)CNC(=O)[C@H]([C@@H](C)O)NC1=O | – | – | – | ring closure, yield after HPLC ([1]; from Z-dLeu-Leu-(3R)3-amino-Phe(free 3-NH2)-(3R)3-OH-Leu-Leu-dArg-Ile-Thr-Gly-Asn-Ser-OH, HATU/NMM, DMF, 25.0 °C): 88.3%
CC[C@H](C)[C@@H]1NC(=O)[C@@H](CCCNC(=O)OCc2ccccc2)NC(=O)[C@H](CC(C)C)NC(=O)[C@H]([C@H](O)C(C)C)NC(=O)[C@@H](NC(=O)[C@H](CC(C)(C)C)NC(=O)[C@@H](CC(C)(C)C)NC(=O)OCc2ccccc2)[C@@H](c2ccccc2)NC(=O)[C@H](CO)NC(=O)[C@H](CC(N)=O)NC(=O)CNC(=O)[C@H]([C@H](C)O)NC1=O | – | – | – | ring closure, yield after HPLC ([1]; from Z-dAla(3-tBu)-Ala(3-tBu)-(3R)3-amino-Phe(free 3-NH2)-(3R)3-OH-Leu-Leu-dOrn(Z)-Ile-aThr-Gly-Asn-Ser-OH, HATU/NMM, DMF, 4.0 °C): 91.3%
CC[C@H](C)[C@@H]1NC(=O)[C@@H](CCCNC(=N)N)NC(=O)[C@H](CC(C)C)NC(=O)[C@H]([C@H](O)C(C)C)NC(=O)[C@@H](NC(=O)[C@H](CC(C)(C)C)NC(=O)[C@H](N)CC(C)(C)C)[C@@H](c2ccccc2)NC(=O)[C@H](CO)NC(=O)C(C)NC(=O)CNC(=O)[C@H]([C@H](C)O)NC1=O (stereo partly drawn) [Example 13, [3-tert-Butyl-D-alanyl]-[3-tert-butyl-L-alanyl]-[(3R)-3-amino-L-phenylalanyl]-[(3R)-3-hydroxy-L-leucyl]-L-leucyl-D-arginyl-L-isoleucyl-L-allothreonyl-glycyl-L-alanyl-L-serine C^1.11-N^3.3-lactam bistrifluoroacetate] (H-[d(tBuAla)][tBuAla][Phe(βR-NH)][Leu(3R-OH)]L[dR]I[aThr]G[ξA]S; lactam 3-C) | 0.5 µg/mL (≈ 0.402 µM) | 0.5 µg/mL (≈ 0.402 µM) | 0.25 µg/mL (≈ 0.201 µM) | –
CC[C@H](C)[C@@H]1NC(=O)[C@@H](CCCNC(=N)N)NC(=O)[C@H](CC(C)C)NC(=O)[C@H]([C@H](O)C(C)C)NC(=O)[C@@H](NC(=O)[C@H](CC(C)(C)C)NC(=O)[C@H](N)CC(C)(C)C)[C@@H](c2ccccc2)NC(=O)[C@H](CO)NC(=O)C([C@H](O)C(N)=O)NC(=O)CNC(=O)[C@H](CO)NC1=O (stereo partly drawn) [Example 14, [3-tert-Butyl-D-alanyl]-[3-tert-butyl-L-alanyl]-[(3R)-3-amino-L-phenylalanyl]-[(3R)-3-hydroxy-L-leucyl]-L-leucyl-D-arginyl-L-isoleucyl-L-seryl-glycyl-[(3S)-3-hydroxy-L-asparaginyl]-L-serine C^1.11-N^3.3-lactam bistrifluoroacetate] (H-[d(tBuAla)][tBuAla][Phe(βR-NH)][Leu(3R-OH)]L[dR]ISG[X1]S; lactam 3-C) | 0.5 µg/mL (≈ 0.388 µM) | 0.125 µg/mL (≈ 0.0969 µM) | 0.25 µg/mL (≈ 0.194 µM) | –
CC[C@H](C)[C@@H]1NC(=O)[C@@H](CCCNC(=N)N)NC(=O)[C@H](CC(C)C)NC(=O)[C@H]([C@H](O)C(C)C)NC(=O)[C@@H](NC(=O)[C@H](CC(C)(C)C)NC(=O)[C@H](N)CC(C)(C)C)[C@@H](c2ccccc2)NC(=O)C(CO)NC(=O)[C@H](CO)NC(=O)CNC(=O)[C@H](CO)NC1=O (stereo partly drawn) [Example 23, [3-tert-Butyl-D-alanyl]-[3-tert-butyl-L-alanyl]-[(3R)-3-amino-L-phenylalanyl]-[(3R)-3-hydroxy-L-leucyl]-L-leucyl-D-arginyl-L-isoleucyl-L-seryl-glycyl-L-seryl-L-serine C^1.11-N^3.3-lactam bistrifluoroacetate] (H-[d(tBuAla)][tBuAla][Phe(βR-NH)][Leu(3R-OH)]L[dR]ISGS[ξS]; lactam 3-C) | 1 µg/mL (≈ 0.802 µM) | 0.25 µg/mL (≈ 0.201 µM) | 0.5 µg/mL (≈ 0.401 µM) | –
CC[C@H](C)C1NC(=O)[C@H]([C@H](O)C(C)C)NC(=O)[C@@H](NC(=O)[C@H](CC(C)(C)C)NC(=O)[C@H](N)CC(C)(C)C)[C@@H](c2ccccc2)NC(=O)C(CO)NC(=O)[C@H](CO)NC(=O)CNC(=O)[C@H]([C@H](C)O)NC(=O)[C@H]([C@@H](C)CC)NC(=O)[C@@H](CCCNC(=N)N)NC1=O (stereo partly drawn) [Example 35, [3-tert-Butyl-D-alanyl]-[3-tert-butyl-L-alanyl]-[(3R)-3-amino-L-phenylalanyl]-[(3R)-3-hydroxy-L-leucyl]-L-isoleucyl-D-arginyl-L-isoleucyl-L-allothreonyl-glycyl-L-seryl-L-serine C^1.11-N^3.3-lactam bistrifluoroacetate] (H-[d(tBuAla)][tBuAla][Phe(βR-NH)][Leu(3R-OH)][ξIle][dR]I[aThr]GS[ξS]; lactam 3-C) | 1 µg/mL (≈ 0.793 µM) | 0.5 µg/mL (≈ 0.397 µM) | 0.25 µg/mL (≈ 0.198 µM) | –
CCCC[C@@H]1NC(=O)[C@H]([C@H](O)C(C)C)NC(=O)[C@@H](NC(=O)[C@H](Cc2cccnc2)NC(=O)[C@H](N)C[Si](C)(C)C)[C@@H](c2ccccc2)NC(=O)C(CO)NC(=O)[C@H](C)NC(=O)CNC(=O)[C@H]([C@H](C)O)NC(=O)[C@H]([C@@H](C)CC)NC(=O)[C@@H](CCCNC(=N)N)NC1=O (stereo partly drawn) [Example 41, [3-Trimethylsilyl-D-alanyl]-[3-(3-pyridyl)-L-alanyl]-[(3R)-3-amino-L-phenylalanyl]-[(3R)-3-hydroxy-L-leucyl]-L-norleucyl-D-arginyl-L-isoleucyl-L-allothreonyl-glycyl-L-alanyl-L-serine C^1.11-N^3.3-lactam tristrifluoroacetate] (H-[dAla(TMS)][3Pal][Phe(βR-NH)][Leu(3R-OH)][Nle][dR]I[aThr]GA[ξS]; lactam 3-C) | – | – | – | MIC E. faecalis ICB 27159 [2, 6]: 2 µg/mL (≈ 1.56 µM); MIC S. pneumoniae G9a ([3]; BHI broth with 10% bovine serum, 10^6 microbes per ml, 37° C., 18-24 hours, 10% CO2): 0.25 µg/mL (≈ 0.195 µM); MIC S. aureus 133 [4, 6]: 0.25 µg/mL (≈ 0.195 µM)
CC[C@H](C)[C@@H]1NC(=O)[C@@H](CCCNC(=N)N)NC(=O)[C@H](CC(C)C)NC(=O)[C@H]([C@H](O)C(C)C)NC(=O)[C@@H](NC(=O)[C@H](CC(C)(C)C)NC(=O)[C@H](N)CC(C)(C)C)[C@@H](c2cccnc2)NC(=O)C(CO)NC(=O)C([C@H](O)C(N)=O)NC(=O)CNC(=O)[C@H]([C@H](C)O)NC1=O (stereo partly drawn) [Example 44, [3-tert-Butyl-D-alanyl]-[3-tert-butyl-L-alanyl]-[(3R)-3-amino-3-(pyridin-3-yl)-L-alanyl]-[(3R)-3-hydroxy-L-leucyl]-L-leucyl-D-arginyl-L-isoleucyl-L-allothreonyl-glycyl-[(3S)-3-hydroxy-L-asparaginyl]-L-serine C^1.11-N^3.3-lactam tristrifluoroacetate] | 0.5 µg/mL (≈ 0.383 µM) | 0.125 µg/mL (≈ 0.0958 µM) | 0.25 µg/mL (≈ 0.192 µM) | –
N^2.1-(Benzyloxycarbonyl)-[(3R)-3-amino-L-alanyl)]-[(3R)-3-hydroxy-L-leucyl]-L-leucyl-D-arginyl-L-isoleucyl-L-allothreonyl-glycyl-[(3S)-3-hydroxy-L-asparaginyl]-L-serine C^1.9-N^3.1-lactam hydrochloride | – | – | – | ring closure, yield after HPLC ([1]; Et3N (Pfp ester), CHCl3, 0.11 mM, 3 steps): 15.9%
[(3R)-N^2-(Benzyloxycarbonyl)-3-amino-L-phenylalanyl]-[(3R)-3-hydroxy-L-leucyl]-L-leucyl-D-arginyl-L-isoleucyl-L-allothreonyl-glycyl-L-allothreonyl-L-aserinate C^1.9-N^3.1-lactam trifluoroacetate | – | – | – | ring closure, crude yield [5]: 86%
